Consider 3 molecules from US20070264355A1, “BINARY COMPOSITIONS AND METHODS FOR STERILIZATION” (Binary, LLC, priority 2005, published 2007).

Assay type in all cases: cell-based
Test [1] concerns Bacillus subtilis (ATCC 19659) spores. Nature of the test: Microbicidal activity against Bacillus subtilis spores (suspension test, surviving CFU). The following applies: H2O2/H+ 35.25 mM 30 min; inoculum 1120000 CFU. From the text: (§1) Each solution was used alone for the individual controls. Organism suspensions were used to achieve a final target concentration of 2-3×10^6 CFU per ml. For the binary system treatments, sodium hypochlorite solution and hydrogen peroxide solution, non-acidified or acidified, were sequentially added to the microorganisms. Acidified hydrogen peroxide solution was obtained by the addition of 1.0% v/v of 0.001 N hydrochloride solution. After each addition, the resulting mixture was allowed to remain in contact with the organisms for a set amount of time at room temperature (about 22° C.), as listed in the Tables 1 and 2. At the end of the treatment time, the mixtures were neutralized with 200 to 500 microliters of thiosulfate solution (2.4%) to quench the activity of sodium hypochlorite and then treated with 100 to 200 microliters of a 1% catalase solution, containing a minimum of 100 units/ul, to quench the hydrogen peroxide activity. If needed, an appropriate volume of sterile saline was added to bring the final volume of reaction mixture to 1.4 ml after neutralization. Serial dilution plate counts were performed from the contents of each vial in sterile saline and inoculated onto TSA for quantitative culture. Plates were then incubated at 37° C. and counts taken at 24 hours.
Suspensions of Bacillus subtilis (ATCC 19659) containing 100% spores, as confirmed by microscopy, were obtained by washing the spun-down cells with 50% ethanol to eliminate the vegetative form. Starting inoculum of approximately 1-3×10^6 CFU was used as in Example 1.
[…] The binary system was neutralized 30 minutes after addition of hydrogen peroxide using 2.4% thiosulfate and 1% catalase as described in Example 1.

Test [2] relates to Staphylococcus aureus (ATCC 6538). Nature of the test: Microbicidal activity against Staphylococcus aureus (suspension test, surviving CFU). The following applies: H2O2/H+ 0.35 mM 30 min; inoculum 2530000 CFU. The procedure: Bacterial suspensions, specifically Staphylococcus aureus (ATCC 6538) in this example, were prepared by the shake flask method to achieve late log to early stationary phase growth. Bacteria were grown 24 hours in trypticase soy broth (TSB) at 35° C. The cultures were centrifuged at 4,000 rpm for 10 minutes and the supernatants removed. The pellet was collected and washed twice with sterile 0.9% normal saline. The washed microorganisms were suspended and diluted with normal saline to a 3 McFarland standard, i.e., approximately 10^9 bacteria colony forming units (CFU) per ml. Actual colony counts are confirmed by serial dilutions (10^−1 to 10^−5 or 10^−6) plated on trypticase soy agar (TSA) and incubated overnight at 35° C. One hundred microliters of organisms from a stock of 10^7 CFU/ml were used to obtain an approximate final working target inoculum of 10^6 CFU. The microbicidal test is conducted in a vial containing 1.4 ml of final reaction mixture after neutralization.
as §1
After an additional 30 minutes, the binary system mixture was then neutralized using 2.4% thiosulfate followed by 1% catalase as described in the Methods Section.

The next test relates to Bacillus subtilis spores. Description: Microbicidal activity of commonly used antiseptics against Bacillus subtilis spores. The procedure:
(§2) The performance of commonly used antiseptics was tested against Bacillus subtilis and Staphylococcus aureus, following the general procedure of Example 1, to assess the improvement provided by the binary system over these compounds.
After 60 minutes of exposure to the organisms, the individual antiseptics, indicated in Table 15 and Table 16, were neutralized using the corresponding neutralizing solutions prepared as listed below in Materials. Chlorhexidine and IPA were neutralized with 500 microliters of a solution containing 3% Saponin, 3% Tween-80, 0.3% lecithin, and 0.1% histidine. Povidone Iodine was neutralized with 500 microliters of thiosulfate solution (2.4%).

A further test has as its system Staphylococcus aureus. Description: Microbicidal activity of commonly used antiseptics against Staphylococcus aureus. The following applies: inoculum 1475000 CFU. As to the method: as §2
[…] Chlorhexidine and IPA were neutralized with 500 microliters of a solution containing 3% Saponin, 3% Tween-80, 0.3% lecithin, and 0.1% histidine. Povidone Iodine was neutralized with 500 microliters of thiosulfate solution (2.4%).

Where [3] appears, read: PVI 10.00% 60 min, inoculum 1120000 CFU.
Where [4] appears, read: IPA 0.07% 60 min, inoculum 1865000 CFU.
Setting [5] is: IPA 0.70% 60 min, inoculum 1865000 CFU.
Where [6] appears, read: IPA 7% 60 min, inoculum 1865000 CFU.
Where [7] appears, read: IPA 70% 60 min, inoculum 1865000 CFU.

Take `OO` [H2O2/H+, hydrogen peroxide]: in test [1], the “Log 10 (CFU + 1) Survivors” value stood at 6.2, the “Log Reduction” value is −0.2 and the “Total Viability (CFU)” value stood at 1624000 CFU. In test [2], the “Log 10 (CFU + 1) Survivors” value came out at 6.2, the “Log Reduction” value is reported as 0.2 and the “Total Viability (CFU)” value was determined as 1708000 CFU.
Povidone Iodine [PVI]: in the test with Bacillus subtilis spores (setting [3]), the “Log 10 (CFU + 1) Survivors” value came to 5.3, the “Log Reduction” value is recorded as 0.8 and the “Total Viability (CFU)” value was 189000 CFU. In addition, in the test with Staphylococcus aureus (PVI 10.00% 15 min), the “Log 10 (CFU + 1) Survivors” value amounted to 0.0, the “Log Reduction” value turned out to be 6.2 and the “Total Viability (CFU)” value is listed as 0 CFU.
For `CC(C)O` [IPA, Isopropyl Alcohol], the “Log 10 (CFU + 1) Survivors” value amounted to 6.4 with Bacillus subtilis spores (setting [4]); 6.3 with Bacillus subtilis spores (setting [5]); 6.4 in the test with Bacillus subtilis spores (setting [6]); 6.3 in the test on Bacillus subtilis spores (setting [7]); 6.3 in the test on Staphylococcus aureus (IPA 0.07% 15 min); 6.3 in the test with Staphylococcus aureus (IPA 0.70% 15 min). Further, the “Log 10 (CFU + 1) Survivors” value stood at 6.3 with Staphylococcus aureus (IPA 7% 15 min) and 0.0 with Staphylococcus aureus (IPA 70% 15 min). Besides, the “Log Reduction” value with Bacillus subtilis spores (setting [4]) was −0.1; in the test on Bacillus subtilis spores (setting [5]), −0.1; with Bacillus subtilis spores (setting [6]), −0.1; with Bacillus subtilis spores (setting [7]), 0.0; in the test on Staphylococcus aureus (IPA 0.07% 15 min), −0.1; in the test with Staphylococcus aureus (IPA 0.70% 15 min), −0.1. The “Log Reduction” value in the test on Staphylococcus aureus (IPA 7% 15 min) was −0.1; in the test with Staphylococcus aureus (IPA 70% 15 min), 6.2. Also, the “Total Viability (CFU)” value is reported as 2422000 CFU in the test on Bacillus subtilis spores (setting [4]); 2170000 CFU in the test on Bacillus subtilis spores (setting [5]); 2352000 CFU in the test on Bacillus subtilis spores (setting [6]); 2044000 CFU in the test on Bacillus subtilis spores (setting [7]); 1932000 CFU with Staphylococcus aureus (IPA 0.07% 15 min); 1988000 CFU in the test with Staphylococcus aureus (IPA 0.70% 15 min). Besides, the “Total Viability (CFU)” value stood at 1834000 CFU with Staphylococcus aureus (IPA 7% 15 min) and 0 CFU in the test with Staphylococcus aureus (IPA 70% 15 min). Also, in the test on Bacillus subtilis spores (any concentration tested, 60 min), the “activity against B. subtilis spores” value is on record as “did not demonstrate activity”.
